Experimental data reported in patent US20020155064A1, “Method for detection and localization of malignant human tumours” (priority 1997, published 2002).

System: neurotensin receptors
Test: Receptor autoradiography displacement of [125I]-neurotensin binding on tumour tissue sections
Settings: tissue sections from human differentiated ductal pancreatic adenocarcinoma; 40,000 cpm/100 µl [125I]-neurotensin, increasing concentrations of unlabelled peptide; 4° C., 60 minutes; FIG. 1
Method: Receptor autoradiography is performed on 10- and 20-mm thick cryostat sections of the various tumour samples, as described by Reubi et al. (Cancer Res. 1990, 50, 5969-5977). […] After incubation, the sections are washed for eight minutes at 4° C. in four consecutive baths containing 50 mM Tris-HCl buffer, pH 7.6, dipped in ice-cold water, and then quickly dried in a refrigerator under a stream of cold air. The sections are subsequently exposed to a ^3H-Ultrofilm for 1 week, to detect the precise location of the radioactivity. […] Each point represents the optical density of binding measured in the tumour area. Non-specific binding is subtracted from all values.

Ac-Arg-Arg-Pro-Tyr-Ile-Leu-OH [acetyl-neurotensin 8-13]
displacement of [125I]-neurotensin binding: Complete displacement
